Source: ChEMBL document CHEMBL4419175, “Compositions for treatment, diagnosis and prognosis of diseases” (2016)
Active and inactive are the calls of the source. The rule behind the calls is not given here.

What was measured:
PC-3 [1] = experiment: Induction of morphological changes in human PC3 cells assessed as reduction in cell size at 100 nM incubated for 48 hrs by live cell imaging system based assay; assay type: functional
LNCaP [2] = experiment: Inhibition of AR protein expression in human LNCAP cells at 50 nM incubated for 48 hrs by immunoblot analysis; assay type: functional, cell-based
PC-3 [3] = experiment: Induction of apoptosis in human PC3 cells assessed as early apoptotic cells at 100 nM incubated for 48 hrs by Annexin-/7-AAD staining based FACS analysis (reference value: 2.53%); assay type: functional
LNCaP [4] = experiment: Inhibition of PIP5K1alpha protein expression in human LNCAP cells assessed as reduction in AKT phosphorylation at Ser473 residues at 50 nM incubated for 48 hrs by immunoblot analysis relative to control; assay type: functional, cell-based
LNCaP [5] = experiment: Effect on CREB phosphorylation in human LNCAP cells at 50 nM incubated for 48 hrs by immunoblot analysis; assay type: functional, cell-based
PC-3 [6] = experiment: Induction of apoptosis in human PC3 cells assessed as viable cells at 100 nM incubated for 48 hrs by Annexin-/7-AAD staining based FACS analysis (reference value: 94.31%); assay type: functional; settings: PC-3, 48 h, read-out: Activity
PC-3 [7] = experiment: Induction of apoptosis in human PC3 cells assessed as late apoptotic cells at 100 nM incubated for 48 hrs by Annexin-/7-AAD staining based FACS analysis (reference value: 2.83%); assay type: functional
[8] = Toxicity in mouse xenografted with human PC3 cells at 10 mg/kg dosed every second day starting from day 0 and ending on day 20 relative to control; assay type: organism-based; settings: in vivo
LNCaP [9] = experiment: Inhibition of PSA protein expression in human LNCAP cells at 50 nM incubated for 48 hrs by immunoblot analysis; assay type: functional, cell-based
PC-3 [10] = experiment: Antitumor activity against human PC3 cells xenografted in mouse assessed as reduction in volume at 10 mg/kg dosed every second day starting from day 0 and ending on day 20 relative to control; assay type: functional, organism-based
PC-3 [11] = experiment: Inhibition of PIP5K1alpha protein expression in human PC3 cells assessed as reduction in FAK phosphorylation incubated for 48 hrs by immunoblot analysis relative to control; assay type: functional, cell-based
PC-3 [12] = experiment: Induction of morphological changes in human PC3 cells assessed as changes in morphology at 100 nM incubated for 48 hrs by live cell imaging system based assay; assay type: functional
PC-3 [13] = experiment: Inhibition of PIP5K1alpha protein expression in human PC3 cells assessed as reduction in AKT phosphorylation at Ser473 residues at 100 nM incubated for 48 hrs by immunoblot analysis relative to control; assay type: functional, cell-based
PC-3 [14] = experiment: Induction of apoptosis in human PC3 cells assessed as necrotic cells at 100 nM incubated for 48 hrs by Annexin-/7-AAD staining based FACS analysis (reference value: 0.32%); assay type: functional
PC-3 [15] = experiment: Inhibition of PIP5K1alpha protein expression in human PC3 cells at 50 nM incubated for 48 hrs by immunoblot analysis; assay type: functional, cell-based
LNCaP [16] = experiment: Inhibition of PIP5K1alpha protein expression in human LNCAP cells assessed as reduction in AKT phosphorylation at Ser473 residues at 20 uM incubated for 48 hrs by immunoblot analysis relative to control; assay type: functional
LNCaP [17] = experiment: Effect on CREB phosphorylation in human LNCAP cells at 20 uM incubated for 48 hrs by immunoblot analysis; assay type: functional, cell-based
PC-3 [18] = experiment: Inhibition of PIP5K1alpha protein expression in human PC3 cells assessed as reduction in AKT phosphorylation at Ser473 residues at 50 uM incubated for 48 hrs by immunoblot analysis relative to control; assay type: functional, cell-based

Structure (SMILES)	Activity (PC-3 [1])	inhibition (LNCaP [2])	Activity (PC-3 [3])	inhibition (LNCaP [4])	Activity (LNCaP [5])	viability at 0.1 µM (PC-3 [6])	Activity (PC-3 [7])	Activity [8]	inhibition (LNCaP [9])	Activity (PC-3 [10])	inhibition (PC-3 [11])	Activity (PC-3 [12])	inhibition (PC-3 [13])	Activity (PC-3 [14])	inhibition (PC-3 [15])	inhibition (LNCaP [16])	Activity (LNCaP [17])	inhibition (PC-3 [18])
CC(=O)O[C@@]12CO[C@@H]1C[C@H](O)[C@@]1(C)C(=O)[C@H](O)C3=C(C)[C@@H](OC(=O)[C@H](O)[C@@H](NC(=O)OC(C)(C)C)c4ccccc4)C[C@@](O)([C@@H](OC(=O)c4ccccc4)[C@H]21)C3(C)C [DOCETAXEL ANHYDROUS]	Active	inactive	2.73%	inactive	inactive	89.8%	6.36%	Toxic	inactive	Active	inactive	Active	inactive	1.15%	inactive	–	–	–
CN1CC(=O)N2[C@H](c3ccc4c(c3)OCO4)c3[nH]c4ccccc4c3C[C@@H]2C1=O	–	–	–	–	–	–	–	–	–	–	–	–	–	–	–	inactive	inactive	inactive
